The conditions of this data set: 101.33 kPa, Liquid, Buoyancy - hydrostatic balance with magnetic suspension - one sinker.

± gives the expanded uncertainty stated by the source.

This note sets out measurements from the NIST ThermoML archive (doi:10.1021/je900830s).

`CCO` [ethanol]: the mass density stood at 768.9 ± 3.5 kg/m3 (313.2 K), 752.7 ± 1.7 kg/m3 (338.2 K) and 732.4 ± 1.2 kg/m3 (343.2 K).
